From ChEMBL document CHEMBL1201862, “PubChem BioAssay data set” (2004)
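48-hour exposure; five concentrations; linearly interpolated endpoints. Here, GI50 denotes the concentration required for 50% inhibition of growth.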 Activity calls are given as the source filed them. Rule as the data show it: active = GI50 up to about 1.1 µM and inactive = higher.

Tests used:
Assay in all cases: NCI anticancer screen, dose series, 48 h
HCC 2998 = tested on: HCC 2998
OVCAR-3 = tested on: OVCAR-3
XF498 = tested on: XF498
MOLT-4 = tested on: MOLT-4
SK-MEL-28 = tested on: SK-MEL-28
CCRF-CEM = tested on: CCRF-CEM
OVCAR-5 = tested on: OVCAR-5
HCT-116 = tested on: HCT-116
SW-620 = tested on: SW-620
UO-31 = tested on: UO-31
HOP-18 = tested on: HOP-18
IGROV-1 = tested on: IGROV-1
786-0 = tested on: 786-0
M19-MEL = tested on: M19-MEL
SK-MEL-5 = tested on: SK-MEL-5
NCI-H226 = tested on: NCI-H226
ACHN = tested on: ACHN
SR = tested on: SR
Malme-3M = tested on: Malme-3M
OVCAR-8 = tested on: OVCAR-8
KM12 = tested on: KM12
SN12C = tested on: SN12C
A549 = tested on: A549
NCI-H460 = tested on: NCI-H460
HOP-62 = tested on: HOP-62
UACC-62 = tested on: UACC-62
NCI-H23 = tested on: NCI-H23
LXFL 529 = tested on: LXFL 529
HT-29 = tested on: HT-29
CAKI-1 = tested on: CAKI-1
UACC-257 = tested on: UACC-257
COLO 205 = tested on: COLO 205
SF-295 = tested on: SF-295
DMS-114 = tested on: DMS-114
DMS-273 = tested on: DMS-273
SNB-75 = tested on: SNB-75
SF-539 = tested on: SF-539
RPMI-8226 = tested on: RPMI-8226
HOP-92 = tested on: HOP-92
SK-OV-3 = tested on: SK-OV-3
U-251 = tested on: U-251
HCT-15 = tested on: HCT-15
SK-MEL-2 = tested on: SK-MEL-2
LOX IMVI = tested on: LOX IMVI
M14 = tested on: M14
HL-60 = tested on: HL-60
SNB-78 = tested on: SNB-78
RXF 393 = tested on: RXF 393
EKVX = tested on: EKVX
OVCAR-4 = tested on: OVCAR-4
A498 = tested on: A498
K562 = tested on: K562
DLD-1 = tested on: DLD-1
SF-268 = tested on: SF-268
KM-20L2 = tested on: KM-20L2
TK-10 = tested on: TK-10

Measured: GI50

COc1cc(OC)c(C2CC=Cc3c(OC)cc(OC)c(OC)c32)cc1OC (stereo unspecified)
inactive: HCC 2998 > 100 µM | OVCAR-3 > 100 µM | XF498 > 100 µM | MOLT-4 > 100 µM | SK-MEL-28 > 100 µM | CCRF-CEM > 100 µM | OVCAR-5 > 100 µM | HCT-116 > 100 µM | SW-620 > 100 µM | UO-31 > 100 µM | HOP-18 > 100 µM | IGROV-1 > 100 µM | 786-0 > 100 µM | M19-MEL > 100 µM | SK-MEL-5 > 100 µM | NCI-H226 > 100 µM | ACHN > 100 µM | SR > 100 µM | Malme-3M > 100 µM | OVCAR-8 > 100 µM | KM12 > 100 µM | SN12C > 100 µM | A549 > 100 µM | NCI-H460 > 100 µM | HOP-62 > 100 µM | UACC-62 > 100 µM | NCI-H23 > 100 µM | LXFL 529 > 100 µM | HT-29 > 100 µM | CAKI-1 > 100 µM | UACC-257 > 100 µM | COLO 205 > 100 µM | SF-295 > 100 µM | DMS-114 > 100 µM | DMS-273 > 100 µM | SNB-75 > 100 µM | SF-539 > 100 µM | RPMI-8226 > 100 µM | HOP-92 > 100 µM | SK-OV-3 > 100 µM | U-251 > 100 µM | SK-MEL-2 > 100 µM | LOX IMVI > 100 µM | M14 > 100 µM | HL-60 > 100 µM | SNB-78 > 100 µM | RXF 393 > 100 µM | EKVX > 100 µM | OVCAR-4 > 100 µM | A498 > 100 µM | K562 > 100 µM | DLD-1 > 100 µM | SF-268 > 100 µM | KM-20L2 > 100 µM | TK-10 > 100 µM
> 100 µM: HCT-15
